Experimental data: patent publication US5413915A (priority 1991, dated 1995)
Marks after values point to notes of the source that are not given here.

Key:
rat liver microsomes [1] = type: biochemical; set-up: key: Positive: the development of coloration denoted a positive response; Negative: the absence of such coloration denoted a negative response
[2] = in vivo; cited from earlier work
[3] = in vivo; cited from earlier work; remark: listed apart in the source
rat liver microsomes [4] = type: biochemical; set-up: unit not given here
Salmonella typhimurium = conditions: cited from earlier work
rat liver microsomes [5] = experiment: Color development in detection elements with different leuco dyes (Table 2); type: biochemical; conditions: applied dose 10 μmol (formaldehyde 1 μmol); for New Color Development, NBTZ: unexposed control also Black
Description: Solutions containing 0.5 mM of the respective dyes in 0.1 M TRIS buffer, pH=7.4 (except for nitro blue tetrazolium, 5.0 mM in 50% ethanolic TRIS, pH=7.4) were bleached with a few crystals of sodium sulfite or sodium dithionite, then plied in 0.02 mL aliquots as test spots on a clear sheet of transparency film. Spontaneous color development in air was noted (Table 2). Subsequently, a suspension of rat liver microsomes containing 1 mM NADPH and 1 mg/mL gelatin in 0.1 M TRIS-MOPS buffer (pH=7.7) was plied in 0.05 mL aliquots over the dried leuco-dye test spots. After drying, color development condition was noted, and the test spots saved for exposure tests to chemical substances (Table 2). Exposures were carried out by layering 0.01 mL of 0.1-1.0 M solutions of test chemical substances onto the test spots, and changes in color noted over time.

Compound	Teratogen Activity [3]	Detector Response, threshold dose (rat liver microsomes [4])	Mutagenicity (Salmonella typhimurium)	Tumorigen Activity [2]	further results
C=Cc1ccccc1 [Styrene]					Invention Response (rat liver microsomes [1]): Negative; Carcinogenic Status [2]: Negative
OC[C@H]1O[C@@](CO)(O[C@H]2O[C@H](CO)[C@@H](O)[C@H](O)[C@H]2O)[C@@H](O)[C@@H]1O [Sucrose]					Invention Response (rat liver microsomes [1]): Negative; Carcinogenic Status [2]: Negative
c1ccc(Nc2ccccc2)cc1 [Diphenylamine]	+	100	-	-	
CC(=O)O [Acetate]	-		-	-	Invention Response (rat liver microsomes [1]): Negative; Carcinogenic Status [2]: Negative
O=N[O-].[Na+] [NaNO2]	+	0.1	+	+	
CCOP(=S)(OCC)Oc1nc(Cl)c(Cl)cc1Cl [Chlorpyrifos (ind.), Chlorpyrifos]	+	0.01	-	-	
C[C@H](CCC(=O)O)[C@H]1CC[C@H]2[C@@H]3CC[C@@H]4C[C@H](O)CC[C@]4(C)[C@H]3C[C@H](O)[C@]12C [Deoxycholate]	+	0.5	-	-	
O=C(O)CNCP(=O)(O)O [Glyphosate (ind.), Glyphosate]	-	0.3	-	-	
Cl[C@H]1[C@H](Cl)[C@@H](Cl)[C@@H](Cl)[C@H](Cl)[C@H]1Cl [Lindane (USP), Lindane]	+	0.2	-	+	
CCOC(=O)c1ccc(O)cc1 [Ethyl p-Hydroxybenzoate]	+	30	-	-	
Cc1cc(O)ccc1O [Methylhydroquinone]	-	30	-	-	
Oc1cccc2cccnc12 [8-Hydroxyquinoline]	-	0.3	+	+	
Oc1ccc(Cl)cc1 [4-Chlorophenol]	-	< 1	+	+	
CC(Cl)(Cl)Cl [CH3 CCl3]					New Color Development, Methyl Green leuco dye (rat liver microsomes [5]): None; New Color Development, Methyl Violet leuco dye (rat liver microsomes [5]): None^a,b; New Color Development, Naphthol Blue-Black leuco dye (rat liver microsomes [5]): None; New Color Development, Nile Blue A leuco dye (rat liver microsomes [5]): None; New Color Development, Safranin O leuco dye (rat liver microsomes [5]): None; New Color Development, NBTZ (rat liver microsomes [5]): Black
CN(C)C(=O)Nc1ccc(Cl)c(Cl)c1 [DCMU, 3(3,4-Dichlorophenyl)-1,1,dimethylurea]	+			+^e	Invention Response (rat liver microsomes [1]): Positive; Carcinogenic Status [2]: Teratogen only
[Dy+3] [Dysprosium(III)]	-	5	-	-	
NC=O [Formamide]	+	100	-	-	
[Ba+2] [Barium(II)]	-	20-100	-	-	
O=C1C=CC(=O)C=C1.Oc1ccc(O)cc1 [Quinhydrone]	-	0.1-0.2	-	+^e	
CCNc1nc(Cl)nc(NC(C)C)n1 [Atrazine (ind.), Atrazine]	-	0.05	-	+^e	
N#CN [Cyanamid]	-	30	+	+^e	
Oc1ccccc1Cl [2-Chlorophenol]	-	< 1	-	+	

Compound	Teratogen Activity [3]	Detector Response, threshold dose (rat liver microsomes [4])	Mutagenicity (Salmonella typhimurium)	Tumorigen Activity [2]	further results
[Mn+2] [Manganese(II)]	+	5	-	+	
Oc1cccc(Cl)c1 [3-Chlorophenol]	-	< 1	-	+	
CC(C)[C@@H](C)/C=C/[C@@H](C)[C@H]1CC[C@H]2C3=CC=C4C[C@@H](O)CC[C@]4(C)[C@H]3CC[C@]12C [Ergosterol]	+	0.1	-	-	New Color Development, Methyl Green leuco dye (rat liver microsomes [5]): Green; New Color Development, Methyl Violet leuco dye (rat liver microsomes [5]): Violet; New Color Development, Naphthol Blue-Black leuco dye (rat liver microsomes [5]): None; New Color Development, Nile Blue A leuco dye (rat liver microsomes [5]): Blue; New Color Development, Safranin O leuco dye (rat liver microsomes [5]): Pink; New Color Development, NBTZ (rat liver microsomes [5]): Black
Cr(VI)	-	0.1	+	+^e	
O=C1c2ccccc2C(=O)c2ccccc21 [Anthraquinone]	-	1-20	-	-	
Nc1c(Cl)c(Cl)nc(C(=O)O)c1Cl [Picloram (ind.), Picloram]	+	0.01	-		Tumorigen Activity, assignment based on NCI/NTP carcinogenesis bioassay results [2]: +
O=S1OCC2C(CO1)C1(Cl)C(Cl)=C(Cl)C2(Cl)C1(Cl)Cl (stereo not drawn) [Endosulfan (ind.), Endosulfan]	+	0.1	-	+^b	Tumorigen Activity, assignment based on NCI/NTP carcinogenesis bioassay results [2]: -
C=CC(=O)NCNC(=O)C=C [Methylene(bis)acrylamide, Methylene(bis)-acrylamide]	-	< 2	-	-	
Cc1cc(C(C)(C)C)c(O)c(C(C)(C)C)c1 [BHT]	-	200	-	+/-	
ClC1=C(Cl)C2(Cl)C3C(Cl)C(Cl)CC3C1(Cl)C2(Cl)Cl (stereo not drawn) [Chlordane]					Invention Response (rat liver microsomes [1]): Positive; Carcinogenic Status [2]: Positive
CC(C)=O [Acetone]	-	> 50	-	-	
Nc1ccccc1 [Aniline]	-	5	+	+^e	Invention Response (rat liver microsomes [1]): Positive; Carcinogenic Status [2]: Possible
NC(N)=S [2-Thiourea]	+	7	+	+	
CCN(CC)C(=S)S [Diethyldithiocarbamic acid]	+	0.2	-	+^t	Tumorigen Activity, assignment based on NCI/NTP carcinogenesis bioassay results [2]: -
ClCCCl [1,2-Dichloroethane]	-	20	+	+	
O=c1ccc2ccccc2o1 [Coumarin]					Invention Response (rat liver microsomes [1]): Positive; Carcinogenic Status [2]: Positive
C1COCCO1 [1,4-Dioxane]	-	10	-		Tumorigen Activity, assignment based on NCI/NTP carcinogenesis bioassay results [2]: +
CCOC(=O)CC(SP(=S)(OC)OC)C(=O)OCC (stereo not drawn) [Malathion (ind.), Malathion]	+	0.1	-	-	Mutagenicity, direct-acting mutagen (Salmonella typhimurium): +
C=CC#N [Acrylonitrile]	+	20	+	+	
CCOP(=S)(OCC)Oc1cc(C)nc(C(C)C)n1 [Diazinon (ind.), Diazinon]	+	1-100	-	-	
c1ccc(-c2cnc(-c3ccc(-c4ncc(-c5ccccc5)o4)cc3)o2)cc1 [POPOP]					Invention Response (rat liver microsomes [1]): Negative; Carcinogenic Status [2]: Negative
C[C@]12CCC(=O)C=C1CC[C@@H]1[C@@H]2[C@@H](O)C[C@@]2(C)[C@H]1CC[C@]2(O)C(=O)CO [Hydrocortisone]	+	0.1	-	-	
